Results as given in ChEMBL document CHEMBL1201862, “PubChem BioAssay data set” (2004).
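Growth conditions: 96-well plates. Treatment: test compound, 48 hours, 5 concentrations. Analysis: linear interpolation between bracketing concentrations; unreached endpoints set to highest concentration. Abbreviation: GI50, concentration required for 50% inhibition of growth.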 Calls of active or inactive are those of the source. No stated cut-off is given here; in the data, active = GI50 up to about 1.1 µM and inactive = higher.

Key:
Assay in all cases: NCI anticancer screen, dose series, 48 h
Malme-3M = system: Malme-3M
HT-29 = system: HT-29
OVCAR-8 = system: OVCAR-8
MCF7 = system: MCF7
U-251 = system: U-251
PC-3 = system: PC-3
NCI-H460 = system: NCI-H460
NCI-H522 = system: NCI-H522
DU-145 = system: DU-145
EKVX = system: EKVX
SK-MEL-5 = system: SK-MEL-5
BT-549 = system: BT-549
SN12C = system: SN12C
MDA-MB-435 = system: MDA-MB-435
IGROV-1 = system: IGROV-1
Hs-578T = system: Hs-578T
K562 = system: K562
SF-539 = system: SF-539
NCI-H226 = system: NCI-H226
SK-MEL-2 = system: SK-MEL-2
SK-MEL-28 = system: SK-MEL-28
LOX IMVI = system: LOX IMVI
786-0 = system: 786-0
NCI/ADR-RES = system: NCI/ADR-RES
M14 = system: M14
HOP-92 = system: HOP-92
ACHN = system: ACHN
SF-295 = system: SF-295
OVCAR-3 = system: OVCAR-3
MDA-MB-231 = system: MDA-MB-231
SNB-75 = system: SNB-75
OVCAR-4 = system: OVCAR-4
SF-268 = system: SF-268
TK-10 = system: TK-10
HL-60 = system: HL-60
SR = system: SR
UACC-257 = system: UACC-257
OVCAR-5 = system: OVCAR-5
MOLT-4 = system: MOLT-4
CCRF-CEM = system: CCRF-CEM
A498 = system: A498
SW-620 = system: SW-620
COLO 205 = system: COLO 205
RXF 393 = system: RXF 393
HCC 2998 = system: HCC 2998
A549 = system: A549
SNB-19 = system: SNB-19
KM12 = system: KM12
NCI-H23 = system: NCI-H23
HCT-116 = system: HCT-116
MDA-N = system: MDA-N
HOP-62 = system: HOP-62
CAKI-1 = system: CAKI-1
UO-31 = system: UO-31
RPMI-8226 = system: RPMI-8226
HCT-15 = system: HCT-15

**Q.** For `CN1CC[C@]2(c3cccc(O)c3)CC(=O)/C(=C/c3ccccc3)[C@@H]1C2.[O-][Cl+3]([O-])([O-])O`, which GI50 (Malme-3M) is on record?
**A.** Its GI50 is 2.64 µM (inactive).

**Q.** What about the GI50 (HT-29) of the same compound?
**A.** The GI50 was 2.62 µM (inactive).

**Q.** And the GI50 (OVCAR-8)?
**A.** Its GI50 is 3.03 µM (inactive).

**Q.** And the GI50 (MCF7)?
**A.** The GI50 was 2.19 µM (inactive).

**Q.** And the GI50 (U-251)?
**A.** Its GI50 is 2.54 µM (inactive).

**Q.** What about the GI50 (PC-3) of the same compound?
**A.** The GI50 was 1.76 µM (inactive).

**Q.** What about the GI50 (NCI-H460) of the same compound?
**A.** The GI50 was 2.17 µM (inactive).

**Q.** And the GI50 (NCI-H522)?
**A.** The GI50 was 2.74 µM (inactive).

**Q.** What about the GI50 (DU-145) of the same compound?
**A.** The GI50 was 5.52 µM (inactive).

**Q.** And the GI50 (EKVX)?
**A.** The GI50 was 6.92 µM (inactive).

**Q.** And the GI50 (SK-MEL-5)?
**A.** The GI50 was 3.12 µM (inactive).

**Q.** And the GI50 (BT-549)?
**A.** Its GI50 is 2.44 µM (inactive).

**Q.** And the GI50 (SN12C)?
**A.** The GI50 was 2.99 µM (inactive).

**Q.** And the GI50 (MDA-MB-435)?
**A.** The GI50 was 1.72 µM (inactive).

**Q.** What about the GI50 (IGROV-1) of the same compound?
**A.** Its GI50 is 4.39 µM (inactive).

**Q.** And the GI50 (Hs-578T)?
**A.** Its GI50 is 4.62 µM (inactive).

**Q.** And the GI50 (K562)?
**A.** The GI50 was 1.64 µM (inactive).

**Q.** What about the GI50 (SF-539) of the same compound?
**A.** The GI50 was 1.95 µM (inactive).

**Q.** What about the GI50 (NCI-H226) of the same compound?
**A.** Its GI50 is 15 µM (inactive).

**Q.** And the GI50 (SK-MEL-2)?
**A.** Its GI50 is 2.95 µM (inactive).

**Q.** And the GI50 (SK-MEL-28)?
**A.** Its GI50 is 3.06 µM (inactive).

**Q.** And the GI50 (LOX IMVI)?
**A.** The GI50 was 1.94 µM (inactive).

**Q.** And the GI50 (786-0)?
**A.** Its GI50 is 2.44 µM (inactive).

**Q.** What about the GI50 (NCI/ADR-RES) of the same compound?
**A.** Its GI50 is 2.98 µM (inactive).

**Q.** What about the GI50 (M14) of the same compound?
**A.** The GI50 was 2.73 µM (inactive).

**Q.** And the GI50 (HOP-92)?
**A.** Its GI50 is 2.09 µM (inactive).

**Q.** And the GI50 (ACHN)?
**A.** Its GI50 is 2.25 µM (inactive).

**Q.** And the GI50 (SF-295)?
**A.** Its GI50 is 3.24 µM (inactive).

**Q.** And the GI50 (OVCAR-3)?
**A.** The GI50 was 1.97 µM (inactive).

**Q.** And the GI50 (MDA-MB-231)?
**A.** The GI50 was 2.34 µM (inactive).

**Q.** What about the GI50 (SNB-75) of the same compound?
**A.** Its GI50 is 2 µM (inactive).

**Q.** And the GI50 (OVCAR-4)?
**A.** The GI50 was 3.37 µM (inactive).

**Q.** What about the GI50 (SF-268) of the same compound?
**A.** The GI50 was 3.17 µM (inactive).

**Q.** What about the GI50 (TK-10) of the same compound?
**A.** Its GI50 is 13.9 µM (inactive).

**Q.** And the GI50 (HL-60)?
**A.** Its GI50 is 1.8 µM (inactive).

**Q.** And the GI50 (SR)?
**A.** The GI50 was 2.41 µM (inactive).

**Q.** What about the GI50 (UACC-257) of the same compound?
**A.** Its GI50 is 3.24 µM (inactive).

**Q.** What about the GI50 (OVCAR-5) of the same compound?
**A.** The GI50 was 14.4 µM (inactive).

**Q.** And the GI50 (MOLT-4)?
**A.** The GI50 was 2.04 µM (inactive).

**Q.** What about the GI50 (CCRF-CEM) of the same compound?
**A.** The GI50 was 2.13 µM (inactive).

**Q.** What about the GI50 (A498) of the same compound?
**A.** The GI50 was 6.98 µM (inactive).

**Q.** And the GI50 (SW-620)?
**A.** Its GI50 is 2.23 µM (inactive).

**Q.** What about the GI50 (COLO 205) of the same compound?
**A.** The GI50 was 6.97 µM (inactive).

**Q.** And the GI50 (RXF 393)?
**A.** Its GI50 is 1.49 µM (inactive).

**Q.** And the GI50 (HCC 2998)?
**A.** Its GI50 is 2.59 µM (inactive).

**Q.** And the GI50 (A549)?
**A.** The GI50 was 3.42 µM (inactive).

**Q.** And the GI50 (SNB-19)?
**A.** Its GI50 is 5.4 µM (inactive).

**Q.** What about the GI50 (KM12) of the same compound?
**A.** Its GI50 is 3.61 µM (inactive).

**Q.** What about the GI50 (NCI-H23) of the same compound?
**A.** The GI50 was 4.97 µM (inactive).

**Q.** And the GI50 (HCT-116)?
**A.** Its GI50 is 2.31 µM (inactive).

**Q.** And the GI50 (MDA-N)?
**A.** Its GI50 is 1.58 µM (inactive).

**Q.** What about the GI50 (HOP-62) of the same compound?
**A.** Its GI50 is 3.88 µM (inactive).

**Q.** And the GI50 (CAKI-1)?
**A.** Its GI50 is 2.29 µM (inactive).

**Q.** What about the GI50 (UO-31) of the same compound?
**A.** Its GI50 is 2.51 µM (inactive).

**Q.** What about the GI50 (RPMI-8226) of the same compound?
**A.** The GI50 was 1.86 µM (inactive).

**Q.** And the GI50 (HCT-15)?
**A.** Its GI50 is 1660 nM.
